The target in the assay is actomyosin-7a (acto•M7a) (Homo sapiens, UniProt Q13402). Nature of the assay: biochemical.
Sequence of actomyosin-7a (acto•M7a) (Q13402 whole entry, looked up): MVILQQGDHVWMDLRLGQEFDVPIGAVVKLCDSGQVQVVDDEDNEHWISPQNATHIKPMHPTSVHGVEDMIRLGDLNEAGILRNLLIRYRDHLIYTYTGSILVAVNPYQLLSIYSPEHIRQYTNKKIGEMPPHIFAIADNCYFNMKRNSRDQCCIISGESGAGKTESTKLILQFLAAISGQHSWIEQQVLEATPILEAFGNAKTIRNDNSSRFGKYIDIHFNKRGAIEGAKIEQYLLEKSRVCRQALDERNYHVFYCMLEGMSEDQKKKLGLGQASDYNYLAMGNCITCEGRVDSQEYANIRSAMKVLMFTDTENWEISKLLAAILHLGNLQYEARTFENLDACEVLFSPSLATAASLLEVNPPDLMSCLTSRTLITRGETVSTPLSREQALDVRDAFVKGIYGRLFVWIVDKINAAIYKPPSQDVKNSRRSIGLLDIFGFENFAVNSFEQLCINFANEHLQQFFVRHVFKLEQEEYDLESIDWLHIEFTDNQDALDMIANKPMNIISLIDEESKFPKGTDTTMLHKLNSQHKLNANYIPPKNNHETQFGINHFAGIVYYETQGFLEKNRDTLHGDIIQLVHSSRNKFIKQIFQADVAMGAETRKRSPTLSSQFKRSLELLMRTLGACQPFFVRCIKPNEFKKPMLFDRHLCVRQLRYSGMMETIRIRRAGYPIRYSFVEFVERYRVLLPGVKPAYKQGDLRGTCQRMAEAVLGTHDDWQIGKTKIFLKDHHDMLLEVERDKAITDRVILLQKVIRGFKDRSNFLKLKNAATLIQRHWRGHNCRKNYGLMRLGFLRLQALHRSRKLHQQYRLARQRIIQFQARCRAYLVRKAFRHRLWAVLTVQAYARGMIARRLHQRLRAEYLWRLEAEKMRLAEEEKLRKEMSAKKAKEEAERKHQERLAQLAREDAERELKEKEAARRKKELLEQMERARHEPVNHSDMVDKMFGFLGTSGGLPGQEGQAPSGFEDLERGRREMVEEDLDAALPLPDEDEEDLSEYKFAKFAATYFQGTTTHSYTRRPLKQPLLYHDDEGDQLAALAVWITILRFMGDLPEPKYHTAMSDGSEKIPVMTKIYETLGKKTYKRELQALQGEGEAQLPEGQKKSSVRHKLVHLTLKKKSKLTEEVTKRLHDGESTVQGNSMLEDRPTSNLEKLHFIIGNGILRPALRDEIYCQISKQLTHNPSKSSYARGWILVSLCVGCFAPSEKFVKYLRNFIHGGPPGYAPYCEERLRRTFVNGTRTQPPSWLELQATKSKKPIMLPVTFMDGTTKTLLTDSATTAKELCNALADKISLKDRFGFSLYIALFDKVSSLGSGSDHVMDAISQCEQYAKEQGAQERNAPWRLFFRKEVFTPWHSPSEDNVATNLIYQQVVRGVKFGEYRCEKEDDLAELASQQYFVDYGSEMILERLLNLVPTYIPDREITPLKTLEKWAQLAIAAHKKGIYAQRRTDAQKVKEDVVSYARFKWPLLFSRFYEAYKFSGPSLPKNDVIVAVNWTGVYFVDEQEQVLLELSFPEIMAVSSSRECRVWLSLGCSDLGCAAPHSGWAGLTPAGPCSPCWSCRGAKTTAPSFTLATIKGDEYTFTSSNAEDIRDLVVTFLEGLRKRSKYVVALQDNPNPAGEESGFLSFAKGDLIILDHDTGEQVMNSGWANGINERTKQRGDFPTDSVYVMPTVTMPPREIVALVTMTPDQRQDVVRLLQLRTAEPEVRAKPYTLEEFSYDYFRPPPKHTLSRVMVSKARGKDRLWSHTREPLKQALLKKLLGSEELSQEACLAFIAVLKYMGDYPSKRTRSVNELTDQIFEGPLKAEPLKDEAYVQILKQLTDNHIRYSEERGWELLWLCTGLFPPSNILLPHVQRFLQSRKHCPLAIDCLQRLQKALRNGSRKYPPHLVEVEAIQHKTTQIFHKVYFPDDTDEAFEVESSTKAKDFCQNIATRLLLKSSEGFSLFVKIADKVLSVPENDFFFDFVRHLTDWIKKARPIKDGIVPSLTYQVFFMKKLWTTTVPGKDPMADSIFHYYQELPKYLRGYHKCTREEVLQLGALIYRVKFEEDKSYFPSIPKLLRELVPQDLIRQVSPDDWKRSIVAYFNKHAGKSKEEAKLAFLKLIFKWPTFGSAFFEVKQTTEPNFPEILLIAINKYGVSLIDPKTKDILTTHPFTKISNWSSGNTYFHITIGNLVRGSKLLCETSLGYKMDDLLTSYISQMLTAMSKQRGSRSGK

As to `Nc1ncnc2c1ncn2[C@@H]1O[C@H](COP(=O)(O)OP(=O)(O)OP(=O)(O)O)[C@@H](O)[C@H]1O` [ATP], the Kd was found to be 681.2 ± 5.63 µM.

Usually Kd stands for a measure of binding affinity in units of concentration. A low value points to higher affinity.

The values above are taken from article PMC3249170 (Cellular and Molecular Life Sciences: CMLS, 2011).
